{"source": "PubChem BioAssay (NCI)", "test_in_all_cases": "growth of human tumour cells (NCI), 48 h", "key": {"HCC-2998 colon": {"tested_on": "HCC-2998 colon"}, "HT29 colon": {"tested_on": "HT29 colon"}, "KM12 colon": {"tested_on": "KM12 colon"}, "OVCAR-4 ovarian": {"tested_on": "OVCAR-4 ovarian"}, "RXF 393 renal": {"tested_on": "RXF 393 renal"}, "SF-268 CNS": {"tested_on": "SF-268 CNS"}, "SF-539 CNS": {"tested_on": "SF-539 CNS"}, "SK-MEL-5 melanoma": {"tested_on": "SK-MEL-5 melanoma"}, "SNB-19 CNS": {"tested_on": "SNB-19 CNS"}, "TK-10 renal": {"tested_on": "TK-10 renal"}, "OVCAR-5 ovarian": {"tested_on": "OVCAR-5 ovarian"}}, "note": "Several values for one entry are separate records, joined by “and”; a condition that tells them apart may be missing. Equal values may be shown once.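 Interpolation was linear, between the two tested concentrations surrounding the appropriate level; five concentrations were tested over 48 hours in 96-well plates. GI50: concentration for 50% inhibition of growth. TGI is the concentration that stops growth completely.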"}
{"smiles": "CN(C)Cc1cc(N=Nc2ccc(Cl)c(Cl)c2)ccc1O", "values": [{"measurement": "TGI", "setting": "HCC-2998 colon", "result": 24.4, "unit": "µM"}, {"measurement": "TGI", "setting": "HT29 colon", "result": 20.4, "unit": "µM"}, {"measurement": "TGI", "setting": "KM12 colon", "result": 16.5, "unit": "µM"}, {"measurement": "TGI", "setting": "OVCAR-4 ovarian", "result": 20.8, "unit": "µM"}, {"measurement": "TGI", "setting": "RXF 393 renal", "result": 10.7, "unit": "µM"}, {"measurement": "TGI", "setting": "SF-268 CNS", "result": 18.7, "unit": "µM"}, {"measurement": "TGI", "setting": "SF-539 CNS", "result": 38.5, "unit": "µM"}, {"measurement": "TGI", "setting": "SK-MEL-5 melanoma", "result": 25.2, "unit": "µM"}, {"measurement": "TGI", "setting": "SNB-19 CNS", "result": 27.6, "unit": "µM"}, {"measurement": "TGI", "setting": "TK-10 renal", "result": 22.9, "unit": "µM"}]}
{"smiles": "CC1=Nn2c(nc3sc4c(c3c2=O)CCCC4)SC1", "values": [{"measurement": "TGI", "setting": "HCC-2998 colon", "result": "> 100", "unit": "µM"}, {"measurement": "TGI", "setting": "HT29 colon", "result": "> 100", "unit": "µM"}, {"measurement": "TGI", "setting": "KM12 colon", "result": "> 100", "unit": "µM"}, {"measurement": "TGI", "setting": "OVCAR-4 ovarian", "result": "> 100", "unit": "µM"}, {"measurement": "TGI", "setting": "OVCAR-5 ovarian", "result": "> 100", "unit": "µM"}, {"measurement": "TGI", "setting": "RXF 393 renal", "result": "> 100", "unit": "µM"}, {"measurement": "TGI", "setting": "SF-268 CNS", "result": "> 100", "unit": "µM"}, {"measurement": "TGI", "setting": "SF-539 CNS", "result": "> 100", "unit": "µM"}, {"measurement": "TGI", "setting": "SK-MEL-5 melanoma", "result": "> 100", "unit": "µM"}, {"measurement": "TGI", "setting": "SNB-19 CNS", "result": "> 100", "unit": "µM"}, {"measurement": "TGI", "setting": "TK-10 renal", "result": "> 100", "unit": "µM"}]}
{"smiles": "COC1C(O)=C2C(=O)OC(C)(O)/C=C/C=C\\C=C/C=C/C(c3ccccc3)NC(=O)/C=C/C=C/C=C/C=C/C2(C)C1O", "note": "(centres undefined)", "values": [{"measurement": "TGI", "setting": "HCC-2998 colon", "result": "0.146 µM and 0.048 µM"}, {"measurement": "TGI", "setting": "HT29 colon", "result": "0.0161 µM and 0.0687 µM"}, {"measurement": "TGI", "setting": "KM12 colon", "result": "0.117 µM and 0.148 µM"}, {"measurement": "TGI", "setting": "OVCAR-4 ovarian", "result": "0.248 µM and 0.0594 µM"}, {"measurement": "GI50", "setting": "OVCAR-5 ovarian", "result": 0.0649, "unit": "µM"}, {"measurement": "TGI", "setting": "OVCAR-5 ovarian", "result": "0.566 µM and 0.224 µM"}, {"measurement": "TGI", "setting": "RXF 393 renal", "result": 0.0425, "unit": "µM"}, {"measurement": "TGI", "setting": "SF-268 CNS", "result": "0.156 µM and 0.127 µM"}, {"measurement": "GI50", "setting": "SF-539 CNS", "result": 0.0307, "unit": "µM"}, {"measurement": "TGI", "setting": "SF-539 CNS", "result": "0.112 µM and 0.165 µM"}, {"measurement": "TGI", "setting": "SK-MEL-5 melanoma", "result": 0.164, "unit": "µM"}, {"measurement": "GI50", "setting": "SNB-19 CNS", "result": 0.0133, "unit": "µM"}, {"measurement": "TGI", "setting": "SNB-19 CNS", "result": "0.239 µM and 0.112 µM"}, {"measurement": "TGI", "setting": "TK-10 renal", "result": 0.0668, "unit": "µM"}]}
{"smiles": "CC(Nc1cc(Cl)cc(Cl)c1)c1ccncc1", "note": "(centres undefined)", "values": [{"measurement": "TGI", "setting": "HCC-2998 colon", "result": 37.1, "unit": "µM"}, {"measurement": "TGI", "setting": "HT29 colon", "result": 88.8, "unit": "µM"}, {"measurement": "TGI", "setting": "OVCAR-4 ovarian", "result": "> 100", "unit": "µM"}, {"measurement": "TGI", "setting": "OVCAR-5 ovarian", "result": 32.4, "unit": "µM"}, {"measurement": "TGI", "setting": "RXF 393 renal", "result": 71.3, "unit": "µM"}, {"measurement": "TGI", "setting": "SF-268 CNS", "result": 51.9, "unit": "µM"}, {"measurement": "TGI", "setting": "SF-539 CNS", "result": 40.8, "unit": "µM"}, {"measurement": "TGI", "setting": "SK-MEL-5 melanoma", "result": 28.7, "unit": "µM"}, {"measurement": "TGI", "setting": "SNB-19 CNS", "result": "> 100", "unit": "µM"}, {"measurement": "TGI", "setting": "TK-10 renal", "result": "> 100", "unit": "µM"}]}
{"smiles": "CC(C)n1c(=O)c2nn3c(=O)n(C(C)C)c(=O)c3nn2c1=O", "values": [{"measurement": "TGI", "setting": "HCC-2998 colon", "result": "> 100", "unit": "µM"}, {"measurement": "TGI", "setting": "HT29 colon", "result": "> 100", "unit": "µM"}, {"measurement": "TGI", "setting": "KM12 colon", "result": "> 100", "unit": "µM"}, {"measurement": "TGI", "setting": "OVCAR-4 ovarian", "result": "> 100", "unit": "µM"}, {"measurement": "TGI", "setting": "OVCAR-5 ovarian", "result": "> 100", "unit": "µM"}, {"measurement": "TGI", "setting": "RXF 393 renal", "result": "> 100", "unit": "µM"}, {"measurement": "TGI", "setting": "SF-268 CNS", "result": "> 100", "unit": "µM"}, {"measurement": "TGI", "setting": "SF-539 CNS", "result": "> 100", "unit": "µM"}, {"measurement": "TGI", "setting": "SK-MEL-5 melanoma", "result": "> 100", "unit": "µM"}, {"measurement": "TGI", "setting": "SNB-19 CNS", "result": "> 100", "unit": "µM"}, {"measurement": "TGI", "setting": "TK-10 renal", "result": "> 100", "unit": "µM"}]}
{"smiles": "Cc1ccc(-n2c(C)nc3c2C(=O)c2ccccc2C3=O)cc1", "values": [{"measurement": "TGI", "setting": "HCC-2998 colon", "result": "> 100", "unit": "µM"}, {"measurement": "TGI", "setting": "HT29 colon", "result": "> 100", "unit": "µM"}, {"measurement": "TGI", "setting": "KM12 colon", "result": "> 100", "unit": "µM"}, {"measurement": "TGI", "setting": "OVCAR-4 ovarian", "result": "> 100", "unit": "µM"}, {"measurement": "TGI", "setting": "RXF 393 renal", "result": "> 100", "unit": "µM"}, {"measurement": "TGI", "setting": "SF-268 CNS", "result": "> 100", "unit": "µM"}, {"measurement": "TGI", "setting": "SF-539 CNS", "result": 86.1, "unit": "µM"}, {"measurement": "TGI", "setting": "SK-MEL-5 melanoma", "result": "> 100", "unit": "µM"}, {"measurement": "TGI", "setting": "SNB-19 CNS", "result": "> 100", "unit": "µM"}, {"measurement": "TGI", "setting": "TK-10 renal", "result": "> 100", "unit": "µM"}]}
{"smiles": "COc1cccc(C2c3cc4c(cc3OC(N3CCOCC3)C2C)OCO4)c1O", "note": "(centres undefined)", "values": [{"measurement": "TGI", "setting": "HCC-2998 colon", "result": 21.9, "unit": "µM"}, {"measurement": "TGI", "setting": "HT29 colon", "result": 28.8, "unit": "µM"}, {"measurement": "TGI", "setting": "KM12 colon", "result": 46.9, "unit": "µM"}, {"measurement": "TGI", "setting": "OVCAR-4 ovarian", "result": "> 100", "unit": "µM"}, {"measurement": "TGI", "setting": "OVCAR-5 ovarian", "result": 60, "unit": "µM"}, {"measurement": "TGI", "setting": "RXF 393 renal", "result": 9.43, "unit": "µM"}, {"measurement": "TGI", "setting": "SF-268 CNS", "result": "> 79.1", "unit": "µM"}, {"measurement": "TGI", "setting": "SF-539 CNS", "result": 9.66, "unit": "µM"}, {"measurement": "TGI", "setting": "SK-MEL-5 melanoma", "result": 18.4, "unit": "µM"}, {"measurement": "TGI", "setting": "SNB-19 CNS", "result": 36.4, "unit": "µM"}, {"measurement": "TGI", "setting": "TK-10 renal", "result": 83.6, "unit": "µM"}]}
{"smiles": "NC(=O)c1ccccc1NC(=O)C(=O)C(c1cnc2ccc([N+](=O)[O-])cc2n1)[N+](=O)[O-]", "note": "(centres undefined)", "values": [{"measurement": "TGI", "setting": "HCC-2998 colon", "result": "> 100", "unit": "µM"}, {"measurement": "TGI", "setting": "HT29 colon", "result": "> 100", "unit": "µM"}, {"measurement": "TGI", "setting": "KM12 colon", "result": "> 100", "unit": "µM"}, {"measurement": "TGI", "setting": "OVCAR-4 ovarian", "result": "> 100", "unit": "µM"}, {"measurement": "TGI", "setting": "OVCAR-5 ovarian", "result": "> 100", "unit": "µM"}, {"measurement": "TGI", "setting": "RXF 393 renal", "result": "> 100", "unit": "µM"}, {"measurement": "TGI", "setting": "SF-268 CNS", "result": "> 100", "unit": "µM"}, {"measurement": "TGI", "setting": "SF-539 CNS", "result": "> 100", "unit": "µM"}, {"measurement": "TGI", "setting": "SK-MEL-5 melanoma", "result": "> 100", "unit": "µM"}, {"measurement": "TGI", "setting": "SNB-19 CNS", "result": "> 100", "unit": "µM"}, {"measurement": "TGI", "setting": "TK-10 renal", "result": "> 100", "unit": "µM"}]}
{"smiles": "CCN(CC)CCNc1ccc(N=Nc2ccc(S(N)(=O)=O)cc2)c2ccccc12", "values": [{"measurement": "TGI", "setting": "HCC-2998 colon", "result": 29.1, "unit": "µM"}, {"measurement": "TGI", "setting": "HT29 colon", "result": 34.9, "unit": "µM"}, {"measurement": "TGI", "setting": "KM12 colon", "result": 39, "unit": "µM"}, {"measurement": "TGI", "setting": "OVCAR-4 ovarian", "result": 30.9, "unit": "µM"}, {"measurement": "TGI", "setting": "OVCAR-5 ovarian", "result": 88.1, "unit": "µM"}, {"measurement": "TGI", "setting": "RXF 393 renal", "result": 12.7, "unit": "µM"}, {"measurement": "TGI", "setting": "SF-268 CNS", "result": 37.8, "unit": "µM"}, {"measurement": "TGI", "setting": "SF-539 CNS", "result": 12.8, "unit": "µM"}, {"measurement": "TGI", "setting": "SK-MEL-5 melanoma", "result": 20.3, "unit": "µM"}, {"measurement": "TGI", "setting": "SNB-19 CNS", "result": 27.7, "unit": "µM"}, {"measurement": "TGI", "setting": "TK-10 renal", "result": 40.3, "unit": "µM"}]}
